Experiments:
Coagulation factor XI [1] = molecular target: T1, Coagulation factor XI (Homo sapiens, UniProt P03951); experiment: Inhibition of human F11a using D-Leu-Pro-Arg*Rh110-D-Pro as substrate preincubated for 60 mins followed by substrate addition and measured after 60 mins by fluorescence assay
Complement factor D = Complement factor D (Homo sapiens, UniProt P00746); assay type: single protein
Plasma kallikrein = Plasma kallikrein (Homo sapiens, UniProt P03952); assay type: single protein
Coagulation factor XI [2] = molecular target: T1, Coagulation factor XI; experiment: Inhibition of […] human plasma F11a catalytic domain expressed in Escherichia coli strain BL21(DE3) using D-Leu-Pro-Arg*Rh110-D-Pro as substrate preincubated for 60 mins followed by substrate addition and measured after 60 mins by fluorescence assay
Coagulation factor VII = molecular target: T2, Coagulation factor VII (Homo sapiens, UniProt P08709); assay type: single protein
T2 sequence (P08709 whole entry): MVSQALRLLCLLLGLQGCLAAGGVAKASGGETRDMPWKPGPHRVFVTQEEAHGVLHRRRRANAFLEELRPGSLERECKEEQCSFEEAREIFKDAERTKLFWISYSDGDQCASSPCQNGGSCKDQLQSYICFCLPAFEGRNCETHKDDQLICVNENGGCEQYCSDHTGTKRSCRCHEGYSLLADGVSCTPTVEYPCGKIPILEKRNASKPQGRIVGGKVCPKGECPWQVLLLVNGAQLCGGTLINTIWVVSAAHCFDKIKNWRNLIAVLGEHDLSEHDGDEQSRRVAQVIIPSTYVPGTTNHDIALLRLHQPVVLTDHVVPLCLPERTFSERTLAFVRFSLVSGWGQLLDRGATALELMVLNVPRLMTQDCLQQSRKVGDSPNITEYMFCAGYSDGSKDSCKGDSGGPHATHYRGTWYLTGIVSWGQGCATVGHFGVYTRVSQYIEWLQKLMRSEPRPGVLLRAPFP

Coagulation factor IX = Coagulation factor IX (Homo sapiens, UniProt P00740); assay type: single protein
Coagulation factor X = Coagulation factor X (Homo sapiens, UniProt P00742); assay type: single protein
Prothrombin = Prothrombin (Homo sapiens, UniProt P00734); assay type: single protein
[3] = molecular target: Tissue-type plasminogen activator (Homo sapiens, UniProt P00750); assay type: single protein
Plasminogen = Plasminogen (Homo sapiens, UniProt P00747); assay type: single protein
[4] = molecular target: T3, Urokinase-type plasminogen activator (Homo sapiens, UniProt P00749); assay type: single protein
[5] = Clearance in C57BL/6 mouse at 0.4 mg/kg, iv bolus injection or 3 mg/kg, po by LC-MS/MS analysis; assay type: ADME, organism-based; conditions: in vivo
[6] = Volume of distribution at steady state in C57BL/6 mouse at 0.4 mg/kg, iv bolus injection or 3 mg/kg, po by LC-MS/MS analysis; assay type: ADME, organism-based; conditions: in vivo, read-out: Vdss
[7] = Terminal half life in C57BL/6 mouse at 0.4 mg/kg, iv bolus injection or 3 mg/kg, po by LC-MS/MS analysis; assay type: ADME, organism-based; conditions: in vivo, read-out: beta t1/2 (converted)
[8] = Dose normalized AUC in C57BL/6 mouse at 0.4 mg/kg, iv bolus injection by LC-MS/MS analysis; assay type: ADME, organism-based; conditions: in vivo
[9] = Dose normalized AUC in C57BL/6 mouse at 3 mg/kg, po by LC-MS/MS analysis; assay type: ADME, organism-based; conditions: in vivo
[10] = Oral bioavailability in C57BL/6 mouse at 3 mg/kg by LC-MS/MS analysis; assay type: ADME, organism-based; conditions: in vivo
[11] = Dose normalized Cmax in C57BL/6 mouse at 0.4 mg/kg, iv bolus injection or 3 mg/kg, po by LC-MS/MS analysis; assay type: ADME, organism-based; conditions: in vivo
[12] = Tmax in C57BL/6 mouse at 0.4 mg/kg, iv bolus injection or 3 mg/kg, po by LC-MS/MS analysis; assay type: ADME, organism-based; conditions: in vivo
Homo sapiens = species on record: Homo sapiens; experiment: Selectivity ratio of IC50 for inhibition of human complement FD to IC50 for inhibition of human F11a
[13] = Dose normalized Cmax in C57BL/6 mouse at 1 mg/kg, iv bolus injection or 3 mg/kg, po by LC-MS/MS analysis; assay type: ADME, organism-based; conditions: in vivo
[14] = Clearance in C57BL/6 mouse at 1 mg/kg, iv bolus injection or 3 mg/kg, po by LC-MS/MS analysis; assay type: ADME, organism-based; conditions: in vivo
[15] = Volume of distribution at steady state in C57BL/6 mouse at 1 mg/kg, iv bolus injection or 3 mg/kg, po by LC-MS/MS analysis; assay type: ADME, organism-based; conditions: in vivo, read-out: Vdss
[16] = Terminal half life in C57BL/6 mouse at 1 mg/kg, iv bolus injection or 3 mg/kg, po by LC-MS/MS analysis; assay type: ADME, organism-based; conditions: in vivo, read-out: beta t1/2 (converted)
[17] = molecular target: T3, Urokinase-type plasminogen activator; assay type: ADME
[18] = molecular target: Prostaglandin G/H synthase 1 (Homo sapiens, UniProt P23219); experiment: Inhibition of COX1 (unknown origin)
[19] = molecular target: 3',5'-cyclic-AMP phosphodiesterase 4D (Homo sapiens, UniProt Q08499); experiment: Inhibition of PDE4D (unknown origin)
[20] = molecular target: Synaptic vesicular amine transporter (Homo sapiens, UniProt Q05940); experiment: Inhibition of VMAT2 (unknown origin)
Plasma [21] = experiment: Anticoagulant activity in human plasma assessed as concentration required to double the activated partial thromboplastin time incubated for 3 mins followed by calcium chloride addition by aPTT-s reagent based automated coagulometric method; assay type: functional
Plasma [22] = experiment: Effect on coagulation in human plasma assessed as concentration required to double the prothrombin time by thromboplastin-DS reagent based automated coagulometric method; assay type: ADME, cell-free

Chain of Coagulation factor IX (P00740 47-191 limits assumed): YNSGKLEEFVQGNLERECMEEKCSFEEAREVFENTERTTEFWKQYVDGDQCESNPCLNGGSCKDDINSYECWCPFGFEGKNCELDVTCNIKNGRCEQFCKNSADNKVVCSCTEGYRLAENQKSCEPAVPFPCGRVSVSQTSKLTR
Chain of Coagulation factor IX (P00740 227-461 limits assumed): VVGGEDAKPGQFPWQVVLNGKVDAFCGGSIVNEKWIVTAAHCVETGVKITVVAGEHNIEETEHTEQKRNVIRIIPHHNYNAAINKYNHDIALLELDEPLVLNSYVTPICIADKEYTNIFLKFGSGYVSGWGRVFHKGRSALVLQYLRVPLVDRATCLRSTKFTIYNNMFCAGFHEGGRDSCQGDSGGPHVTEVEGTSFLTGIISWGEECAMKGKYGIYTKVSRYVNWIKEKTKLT
Chain of Coagulation factor X (P00742 41-179 limits assumed): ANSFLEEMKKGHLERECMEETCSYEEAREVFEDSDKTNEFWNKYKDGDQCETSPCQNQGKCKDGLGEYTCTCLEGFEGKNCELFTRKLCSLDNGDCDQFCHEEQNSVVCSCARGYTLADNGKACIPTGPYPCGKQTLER
Chain of Coagulation factor X (P00742 235-488 limits assumed): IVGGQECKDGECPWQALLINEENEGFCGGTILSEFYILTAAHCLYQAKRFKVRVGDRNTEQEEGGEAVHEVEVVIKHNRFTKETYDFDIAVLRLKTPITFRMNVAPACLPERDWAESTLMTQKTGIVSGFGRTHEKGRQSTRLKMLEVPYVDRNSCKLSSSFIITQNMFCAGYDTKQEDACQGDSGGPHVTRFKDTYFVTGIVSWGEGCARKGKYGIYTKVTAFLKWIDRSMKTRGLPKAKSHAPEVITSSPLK
Chain of Plasminogen (P00747 97-580 limits assumed): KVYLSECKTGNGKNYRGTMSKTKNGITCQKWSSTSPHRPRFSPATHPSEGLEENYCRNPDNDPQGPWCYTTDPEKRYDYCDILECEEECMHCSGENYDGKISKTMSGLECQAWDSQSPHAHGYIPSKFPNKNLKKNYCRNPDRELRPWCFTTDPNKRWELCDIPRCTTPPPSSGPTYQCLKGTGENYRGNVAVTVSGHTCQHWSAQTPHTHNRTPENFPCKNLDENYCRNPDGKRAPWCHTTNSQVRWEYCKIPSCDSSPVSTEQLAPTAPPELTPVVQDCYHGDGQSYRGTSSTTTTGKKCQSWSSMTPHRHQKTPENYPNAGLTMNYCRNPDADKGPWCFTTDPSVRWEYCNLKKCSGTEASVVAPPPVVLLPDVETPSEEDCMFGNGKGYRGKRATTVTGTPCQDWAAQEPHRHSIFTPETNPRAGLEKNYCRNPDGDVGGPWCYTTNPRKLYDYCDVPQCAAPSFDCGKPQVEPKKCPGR
Chain of Plasminogen (P00747 581-810 limits assumed): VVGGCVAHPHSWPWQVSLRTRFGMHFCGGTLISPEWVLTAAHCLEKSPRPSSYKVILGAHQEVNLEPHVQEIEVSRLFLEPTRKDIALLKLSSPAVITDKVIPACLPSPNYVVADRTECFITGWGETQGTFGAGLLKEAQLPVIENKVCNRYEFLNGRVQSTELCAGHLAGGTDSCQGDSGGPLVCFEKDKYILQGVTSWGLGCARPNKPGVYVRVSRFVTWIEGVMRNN
T1 sequence (P03951 19-387 limits assumed): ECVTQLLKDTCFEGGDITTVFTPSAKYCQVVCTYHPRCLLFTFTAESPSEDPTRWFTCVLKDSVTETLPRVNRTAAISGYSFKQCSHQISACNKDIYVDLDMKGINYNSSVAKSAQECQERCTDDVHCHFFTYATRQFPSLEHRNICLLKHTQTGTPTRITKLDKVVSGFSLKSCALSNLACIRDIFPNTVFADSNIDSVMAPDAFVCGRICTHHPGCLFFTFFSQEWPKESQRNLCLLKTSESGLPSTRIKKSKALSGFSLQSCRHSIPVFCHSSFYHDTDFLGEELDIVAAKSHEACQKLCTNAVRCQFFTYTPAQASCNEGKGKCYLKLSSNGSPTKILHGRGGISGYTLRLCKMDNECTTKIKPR
T1 sequence (P03951 388-625 limits assumed): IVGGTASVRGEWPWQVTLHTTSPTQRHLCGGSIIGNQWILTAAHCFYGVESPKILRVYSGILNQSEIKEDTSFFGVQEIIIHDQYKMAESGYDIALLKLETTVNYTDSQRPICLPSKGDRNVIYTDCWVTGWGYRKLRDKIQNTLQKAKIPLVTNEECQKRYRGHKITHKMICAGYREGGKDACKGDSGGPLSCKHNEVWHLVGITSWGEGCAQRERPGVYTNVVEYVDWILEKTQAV
Chain of Tissue-type plasminogen activator (P00750 whole entry): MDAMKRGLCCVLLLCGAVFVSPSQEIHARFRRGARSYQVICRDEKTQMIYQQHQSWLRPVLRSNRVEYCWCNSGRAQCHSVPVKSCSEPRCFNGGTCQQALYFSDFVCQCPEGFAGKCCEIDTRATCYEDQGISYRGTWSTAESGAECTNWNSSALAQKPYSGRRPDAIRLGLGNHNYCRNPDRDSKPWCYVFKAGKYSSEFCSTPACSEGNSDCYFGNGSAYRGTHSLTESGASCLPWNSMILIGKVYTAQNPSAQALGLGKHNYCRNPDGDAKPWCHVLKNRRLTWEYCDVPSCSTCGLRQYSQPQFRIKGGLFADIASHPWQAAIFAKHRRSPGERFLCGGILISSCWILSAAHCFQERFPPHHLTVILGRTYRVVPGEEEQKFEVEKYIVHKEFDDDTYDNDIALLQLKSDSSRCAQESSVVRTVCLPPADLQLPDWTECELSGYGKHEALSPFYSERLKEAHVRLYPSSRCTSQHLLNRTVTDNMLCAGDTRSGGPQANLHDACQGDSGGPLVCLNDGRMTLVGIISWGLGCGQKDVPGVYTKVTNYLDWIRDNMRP
Chain of Complement factor D (P00746 whole entry): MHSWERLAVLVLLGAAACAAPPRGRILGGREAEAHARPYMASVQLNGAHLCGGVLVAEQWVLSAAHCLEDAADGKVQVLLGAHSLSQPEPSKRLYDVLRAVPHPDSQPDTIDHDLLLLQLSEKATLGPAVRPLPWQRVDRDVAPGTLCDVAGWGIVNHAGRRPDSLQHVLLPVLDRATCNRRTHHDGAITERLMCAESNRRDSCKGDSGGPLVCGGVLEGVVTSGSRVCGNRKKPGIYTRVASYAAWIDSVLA
Chain of Plasma kallikrein (P03952 20-390 limits assumed): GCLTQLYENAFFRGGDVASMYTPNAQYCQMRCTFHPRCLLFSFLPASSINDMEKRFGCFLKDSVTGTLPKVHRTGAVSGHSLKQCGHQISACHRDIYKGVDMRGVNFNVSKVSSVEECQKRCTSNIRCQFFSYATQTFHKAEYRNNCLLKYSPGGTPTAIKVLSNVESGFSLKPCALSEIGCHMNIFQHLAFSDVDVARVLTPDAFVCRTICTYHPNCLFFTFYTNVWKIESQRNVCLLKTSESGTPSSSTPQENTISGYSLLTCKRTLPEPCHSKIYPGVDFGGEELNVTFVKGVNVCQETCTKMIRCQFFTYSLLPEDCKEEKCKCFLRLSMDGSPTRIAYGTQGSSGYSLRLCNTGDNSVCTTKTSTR
Chain of Plasma kallikrein (P03952 391-638 limits assumed): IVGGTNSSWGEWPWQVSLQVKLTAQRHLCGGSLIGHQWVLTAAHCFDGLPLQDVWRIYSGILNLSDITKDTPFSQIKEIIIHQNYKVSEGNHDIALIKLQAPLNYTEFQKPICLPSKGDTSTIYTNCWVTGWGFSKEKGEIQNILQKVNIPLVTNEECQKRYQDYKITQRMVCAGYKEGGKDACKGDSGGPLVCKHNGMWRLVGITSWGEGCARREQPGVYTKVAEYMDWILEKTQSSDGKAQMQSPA
Chain of 3',5'-cyclic-AMP phosphodiesterase 4D (Q08499 whole entry): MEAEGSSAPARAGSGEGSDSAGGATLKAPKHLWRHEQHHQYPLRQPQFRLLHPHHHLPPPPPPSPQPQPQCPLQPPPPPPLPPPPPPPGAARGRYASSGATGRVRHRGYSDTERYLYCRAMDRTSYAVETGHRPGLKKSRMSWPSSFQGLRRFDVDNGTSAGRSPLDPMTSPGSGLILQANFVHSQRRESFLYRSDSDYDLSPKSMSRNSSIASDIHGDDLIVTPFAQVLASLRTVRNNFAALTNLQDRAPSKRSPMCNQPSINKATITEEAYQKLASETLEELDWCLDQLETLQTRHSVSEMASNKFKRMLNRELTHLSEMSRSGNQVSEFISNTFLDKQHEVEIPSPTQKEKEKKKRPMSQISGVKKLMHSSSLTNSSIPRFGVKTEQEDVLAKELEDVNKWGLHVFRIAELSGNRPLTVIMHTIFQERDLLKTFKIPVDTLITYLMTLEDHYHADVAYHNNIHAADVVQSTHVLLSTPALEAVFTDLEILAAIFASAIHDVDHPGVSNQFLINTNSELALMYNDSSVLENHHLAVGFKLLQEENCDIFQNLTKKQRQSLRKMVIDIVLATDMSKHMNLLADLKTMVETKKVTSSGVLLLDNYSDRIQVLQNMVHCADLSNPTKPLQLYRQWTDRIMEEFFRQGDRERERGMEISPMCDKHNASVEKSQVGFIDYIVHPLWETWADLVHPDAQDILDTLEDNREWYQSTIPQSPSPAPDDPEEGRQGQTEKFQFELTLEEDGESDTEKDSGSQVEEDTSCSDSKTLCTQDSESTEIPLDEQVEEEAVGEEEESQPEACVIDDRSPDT
Chain of Synaptic vesicular amine transporter (Q05940 whole entry): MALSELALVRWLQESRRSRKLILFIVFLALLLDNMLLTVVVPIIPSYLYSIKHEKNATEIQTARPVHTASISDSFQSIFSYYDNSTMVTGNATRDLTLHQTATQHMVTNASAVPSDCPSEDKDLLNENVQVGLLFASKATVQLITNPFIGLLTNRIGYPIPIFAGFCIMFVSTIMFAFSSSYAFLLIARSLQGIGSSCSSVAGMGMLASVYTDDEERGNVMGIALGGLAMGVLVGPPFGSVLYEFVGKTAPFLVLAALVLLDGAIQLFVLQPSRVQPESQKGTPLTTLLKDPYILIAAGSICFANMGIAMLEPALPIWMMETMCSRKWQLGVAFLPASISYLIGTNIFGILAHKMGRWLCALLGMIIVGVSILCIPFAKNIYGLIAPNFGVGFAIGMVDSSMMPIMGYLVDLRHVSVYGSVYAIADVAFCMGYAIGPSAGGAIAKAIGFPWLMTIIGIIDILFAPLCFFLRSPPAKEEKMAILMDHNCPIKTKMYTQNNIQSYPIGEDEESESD

SMILES	IC50 (Complement factor D) [nM]	IC50 (Coagulation factor VII) [µM]	IC50 (Coagulation factor IX) [nM]	IC50 (Coagulation factor X) [nM]	IC50 (Prothrombin) [nM]	IC50 [3] [nM]	IC50 (Plasminogen) [nM]	IC50 [4] [nM]	AUC/dose [9] [nM·h]	bioavailability [10] [%]	also measured
CC(C)c1cc(CCN2CCc3cccc(C(=O)O)c32)cc(-c2ccc3c(c2)[C@H](N)CO3)c1	4410	6.23	3300	1830	3080	660	2560	520	14041	36	IC50 (Coagulation factor XI [1]): 6 nM; IC50 (Plasma kallikrein): 58 nM; IC50 (Coagulation factor XI [2]): 220 nM; clearance [5]: 1 mL/min/kg; Vd [6]: 0.4 L/kg; half-life [7]: 552 min; AUC/dose [8]: 38652 nM·h; Cmax/dose [11]: 1495 nM; Tmax [12]: 42 min; Ratio IC50 (Homo sapiens): 700
CC(C)c1cc(COc2ccccc2CC(=O)O)cc(-c2ccc3c(c2)[C@H](N)CO3)c1	40	5.1	170	500	90	90	2600	47	48927	100	Cmax/dose [13]: 5.263 µM; clearance [14]: 1 mL/min/kg; Vd [15]: 0.4 L/kg; half-life [16]: 330 min; IC50 [17]: 47 nM; IC50 [18]: 3.3 µM; IC50 [19]: 7.2 µM; IC50 [20]: 5.2 µM; 2aPTT (Plasma [21]): 2.2 µM; 2PT (Plasma [22]): 9.9 µM

Reference: ChEMBL document CHEMBL4619774 (J Med Chem, 2020)
